Our source for the IC50 values is patent EP3722296B1, “DIHYDRONAPHTHYRIDINES AND RELATED COMPOUNDS USEFUL AS KINASE INHIBITORS FOR THE TREATMENT OF PROLIFERATIVE DISEASES” (Deciphera Pharmaceuticals, LLC, priority 2012, dated 2013).

For test [1], the target named is c-KIT kinase (Homo sapiens, UniProt P10721). Put plainly: c-KIT kinase Assay. The format is biochemical. On the set-up: cKIT residues T544-V976; GST (N); TEV cleavage site (internal); purchased deCODE Biostructures. To be noted: enzymatic assay, ATP 200 µM; read-out: KIT (wt) IC50. The method in brief:
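This continuous spectrophotometric assay tracked c-KIT kinase turnover through NADH consumption at 340 nm, recorded for 2 hours at 30 °C. The enzyme construct from deCODE Biostructures carried an N-terminal tag, a GST-fusion sequence and a TEV cleavage site. Percent inhibition came from reaction rates over 0 to 1 h relative to a no-compound control, and IC50 values were derived with GraphPad Prism.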

Test [2] has as its target T1, c-KIT D816H kinase (Homo sapiens, UniProt P10721, D816H).
T1 construct: The construct contains residues T544-V976 of cKit; GST (N); TEV cleavage site (internal); purchased deCODE Biostructures
Put plainly: c-KIT D816H Kinase Assay. To be noted: enzymatic assay, ATP 200 µM. Format: biochemical. In a few lines: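 Mutant cKit enzyme, expressed as a GST-fusion construct carrying an N-terminal tag and TEV site, was mixed with serially diluted compound to start reactions. Activity tracked via NADH consumption, read continuously at 340 nm over 6 hours at 30 °C.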

Test [3] deals with Phospho-KIT (Tyr719). Put plainly: GIST48 KIT Western Blot. Format: cell-based. To be noted: GIST48 cells, 4 hours, serum-free medium; read-out: pKIT suppression by western blot analysi GIST48. The method in brief:
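Phospho-KIT (Tyr719) was immunoblotted on PVDF and imaged in fluorescence mode after ECL Plus, with stripping and reprobing for total KIT. IC50 values were derived from the blot signals.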
In general terms: A western blot detects proteins with antibodies after separation by electrophoresis.

The target of test [4] is T2, c-KIT V654A kinase (Homo sapiens, UniProt P10721, V654A).
T2 construct: residues T544-V976 with N-terminal GST fusion; purchased deCODE Biostructures
T2 sequence (P10721 544-976 V654A): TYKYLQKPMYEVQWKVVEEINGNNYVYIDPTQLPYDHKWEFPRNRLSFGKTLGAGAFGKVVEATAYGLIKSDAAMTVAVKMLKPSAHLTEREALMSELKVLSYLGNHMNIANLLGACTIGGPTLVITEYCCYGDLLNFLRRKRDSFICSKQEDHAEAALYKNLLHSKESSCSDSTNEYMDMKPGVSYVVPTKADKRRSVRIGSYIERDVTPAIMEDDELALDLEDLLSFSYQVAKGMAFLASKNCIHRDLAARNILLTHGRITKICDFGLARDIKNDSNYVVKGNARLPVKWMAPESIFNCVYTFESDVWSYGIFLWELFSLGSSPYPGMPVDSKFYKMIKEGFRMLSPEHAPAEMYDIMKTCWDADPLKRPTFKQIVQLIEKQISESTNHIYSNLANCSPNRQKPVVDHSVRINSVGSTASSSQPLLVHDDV
In words: c-KIT V654A Kinase Assay. Particulars: enzymatic assay, ATP 200 µM. The format is biochemical. In a few lines: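 Kinase activity tracked by coupled NADH consumption, monitored continuously at 340 nm over 6 h at 30 °C after serially diluted compound was mixed in to start inhibition. Enzyme used was a GST-fused, N-terminally tagged cKIT T544–V976 construct with a TEV cleavage site.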

The target in test [5] is T3, c-KIT T670I kinase (Homo sapiens, UniProt P10721, T670I).
T3 construct: The construct contains residues T544-V976 of cKit; GST (N); TEV cleavage site (internal); purchased deCODE Biostructures
T3 sequence (P10721 544-976 T670I): as the sequence (P10721 544-976 V654A) above, with A111V, T127I counted along it
In words: c-KIT T670I kinase assay. The format is biochemical. To be noted: enzymatic assay. The method in brief: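 Enzyme: GST-fused, N-terminally tagged cKit bearing T670I, with TEV cleavage site. Reaction started by mixing compound dilutions with reaction mix; activity read continuously over 5 h at 30 °C as loss of 340 nm absorbance from NADH consumption.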

pIC50: −log10 of the molar value.

Sequence of c-KIT kinase (P10721 544-976): as the sequence (P10721 544-976 V654A) above, with A111V counted along it
T1 sequence (P10721 544-976 D816H): as the sequence (P10721 544-976 V654A) above, with A111V, D273H counted along it

For `CCn1c(=O)c(-c2cc(NC(=O)Nc3ccccc3)c(F)cc2Cl)cc2cnc(NC)cc21` [Example 3, 1-(4-chloro-5-(1-ethyl-7-(methylamino)-2-oxo-1,2-dihydro-1,6-naphthyridin-3-yl)-2-fluorophenyl)-3-phenylurea], the pIC50 in test [1] was greater than 8.00; in test [2], greater than 8.00; in test [3], 6.00 to 7.00; in test [4] it was greater than 8.00; in test [5] it was 7.00 to 8.00.
Take `CCn1c(=O)c(-c2cc(NC(=O)Nc3cccc(F)c3F)c(F)cc2Cl)cc2cnc(NC)cc21` [Example 4, 1-(4-chloro-5-(1-ethyl-7-(methylamino)-2-oxo-1,2-dihydro-1,6-naphthyridin-3-yl)-2-fluorophenyl)-3-(2,3-difluorophenyl)urea]: the pIC50 is greater than 8.00 in test [1]; greater than 8.00 in test [2]; 7.00 to 8.00 in test [3]; greater than 8.00 in test [4]; 7.00 to 8.00 in test [5].
In the case of `CCn1c(=O)c(-c2cc(NC(=O)Nc3cccc4ccccc34)c(F)cc2Cl)cc2cnc(NC)cc21` [Example 6, 1-(4-chloro-5-(1-ethyl-7-(methylamino)-2-oxo-1,2-dihydro-1,6-naphthyridin-3-yl)-2-fluorophenyl)-3-(naphthalen-1-yl)urea], the pIC50 in test [1] was greater than 8.00; in test [2], 7.00 to 8.00; in test [3] it was greater than 8.00; in test [4], 7.00 to 8.00; in test [5] it was greater than 8.00.
In the case of `CCn1c(=O)c(-c2cc(NC(=O)Nc3cccc(F)c3)c(F)cc2Cl)cc2cnc(N)cc21` [Example 20, 1-(5-(7-amino-1-ethyl-2-oxo-1,2-dihydro-1,6-naphthyridin-3-yl)-4-chloro-2-fluorophenyl)-3-(3-fluorophenyl)urea], the pIC50 in test [1] was greater than 8.00; in test [2], greater than 8.00; in test [3] it was 6.00 to 7.00; in test [4] it was 7.00 to 8.00; in test [5], greater than 8.00.
On to `CNc1cc2c(cn1)cc(-c1cc(NC(=O)Nc3ccccc3)c(F)cc1Cl)c(=O)n2C(C)C` [Example 22, 1-(4-chloro-2-fluoro-5-(1-isopropyl-7-(methylamino)-2-oxo-1,2-dihydro-1,6-naphthyridin-3-yl)phenyl)-3-phenylurea], for which the pIC50 in test [1] is greater than 8.00; in test [2] it was 7.00 to 8.00; in test [3], 7.00 to 8.00; in test [4] it was 7.00 to 8.00; in test [5], 6.00 to 7.00.
As for `CCn1c(=O)c(-c2cc(NC(=O)Nc3ccccc3)c(F)cc2C)cc2cnc(NC)cc21` [Example 23, 1-(5-(1-ethyl-7-(methylamino)-2-oxo-1,2-dihydro-1,6-naphthyridin-3-yl)-2-fluoro-4-methylphenyl)-3-phenylurea], the pIC50 in test [1] is greater than 8.00; in test [2], 7.00 to 8.00; in test [3] it was 6.00 to 7.00; in test [4], greater than 8.00; in test [5], 7.00 to 8.00.
As for `CCn1c(=O)c(-c2cc(NC(=O)Nc3cccc(F)c3)c(F)cc2Cl)cc2cnc(NC)cc21` [Example 24, 1-[4-chloro-5-(1-ethyl-7-methylamino-2-oxo-1,2-dihydro-[1,6]naphthyridin-3-yl)-2-fluoro-phenyl]-3-(3-fluoro-phenyl)-urea], the pIC50 in test [1] is greater than 8.00; in test [2] it was greater than 8.00; in test [3] it was 7.00 to 8.00; in test [4], greater than 8.00; in test [5], greater than 8.00.
As for `CCn1c(=O)c(-c2cc(NC(=O)Nc3ccccc3F)c(F)cc2Cl)cc2cnc(NC)cc21` [Example 25, 1-[4-chloro-5-(1-ethyl-7-methylamino-2-oxo-1,2-dihydro-[1,6]naphthyridin-3-yl)-2-fluoro-phenyl]-3-(2-fluoro-phenyl)-urea], the pIC50 in test [1] is greater than 8.00; in test [2], 7.00 to 8.00; in test [3] it was 7.00 to 8.00; in test [4], greater than 8.00; in test [5], greater than 8.00.
With `CCn1c(=O)c(-c2cc(NC(=O)Nc3ccccc3)c(F)cc2Cl)cc2cnc(NCCOC)cc21` [Example 27, 1-(4-chloro-5-(1-ethyl-7-(2-methoxyethylamino)-2-oxo-1,2-dihydro-1,6-naphthyridin-3-yl)-2-fluorophenyl)-3-phenylurea], the pIC50 is greater than 8.00 in test [1]; 7.00 to 8.00 in test [2]; 7.00 to 8.00 in test [3]; 7.00 to 8.00 in test [4]; 7.00 to 8.00 in test [5].
On to `CCn1c(=O)c(-c2cc(NC(=O)Nc3cccc(F)c3)c(F)cc2Cl)cc2cnc(NCCOC)cc21` [Example 28, 1-(4-chloro-5-(1-ethyl-7-(2-methoxyethylamino)-2-oxo-1,2-dihydro-1,6-naphthyridin-3-yl)-2-fluorophenyl)-3-(3-fluorophenyl)urea], for which the pIC50 is 7.00 to 8.00 in test [1]; 7.00 to 8.00 in test [2]; 6.00 to 7.00 in test [3]; greater than 8.00 in test [4]; 7.00 to 8.00 in test [5].
For the molecule `CCn1c(=O)c(-c2cc(NC(=O)Nc3csc4ccccc34)c(F)cc2Cl)cc2cnc(NC)cc21` [Example 32, 1-(benzo[b]thiophen-3-yl)-3-(4-chloro-5-(1-ethyl-7-(methylamino)-2-oxo-1,2-dihydro-1,6-naphthyridin-3-yl)-2-fluorophenyl)urea], the pIC50 in test [1] was greater than 8.00; in test [2], greater than 8.00; in test [3], greater than 8.00; in test [4], 7.00 to 8.00; in test [5] it was 7.00 to 8.00.
As to `CCn1c(=O)c(-c2cc(NC(=O)Nc3cccc(F)c3)c(F)cc2C)cc2cnc(NC)cc21` [Example 44, 1-(5-(1-ethyl-7-(methylamino)-2-oxo-1,2-dihydro-1,6-naphthyridin-3-yl)-2-fluoro-4-methylphenyl)-3-(3-fluorophenyl)urea], the pIC50 in test [1] was greater than 8.00; in test [2], greater than 8.00; in test [3], 7.00 to 8.00; in test [4], 7.00 to 8.00; in test [5] it was 7.00 to 8.00.
For `CCn1c(=O)c(-c2cc(NC(=O)Nc3cccc(F)c3)c(F)cc2Br)cc2cnc(NC)cc21` [Example 50, 1-(4-bromo-5-(1-ethyl-7-(methylamino)-2-oxo-1,2-dihydro-1,6-naphthyridin-3-yl)-2-fluorophenyl)-3-(3-fluorophenyl)urea], the pIC50 in test [1] is greater than 8.00; in test [2] it was 7.00 to 8.00; in test [3], 6.00 to 7.00; in test [4] it was 7.00 to 8.00; in test [5], 7.00 to 8.00.
For the molecule `CCn1c(=O)c(-c2cc(NC(=O)Nc3ccccc3)c(F)cc2Br)cc2cnc(NCCOC)cc21` [Example 51, 1-(4-bromo-5-(1-ethyl-7-(2-methoxyethylamino)-2-oxo-1,2-dihydro-1,6-naphthyridin-3-yl)-2-fluorophenyl)-3-phenylurea], the pIC50 in test [1] is 7.00 to 8.00; in test [3], 6.00 to 7.00; in test [4] it was 7.00 to 8.00; in test [5], less than 6.00.
For `CCn1c(=O)c(-c2cc(NC(=O)Nc3ccccc3)c(F)cc2Cl)cc2cnc(NC(C)=O)cc21` [Example 54, 1-(5-(7-acetamido-1-ethyl-2-oxo-1,2-dihydro-1,6-naphthyridin-3-yl)-4-chloro-2-fluorophenyl)-3-phenylurea], the pIC50 in test [1] is greater than 8.00; in test [2], greater than 8.00; in test [3], 7.00 to 8.00; in test [4] it was 7.00 to 8.00; in test [5] it was 7.00 to 8.00.
